Experimental data: US7829524B2, “Antimicrobial peptides” (Novozymes Adenium Biotech A/S, priority 2003, dated 2010)
Read-outs that look alike come from different tables or passages of the source.

System: E. coli TOP10
Type: cell-based
Conditions: end point OD450, 14 hours
Method: A range of synthetic antimicrobial polypeptides were expressed in E. coli TOP10 (Invitrogen) using arabinose as inducer, as disclosed in Example 1 of International patent application WO 00/73433 (with minor modifications). […] Briefly, fresh overnight cultures grown in RM medium containing 0.2% glucose and ampicillin (100 μg/ml) were diluted 300-fold into 150 microliter of RM containing 0.2% glycerol and ampicillin (100 μg/ml) and different concentrations of arabinose (0, 0.01% or 0.1%) in a microtiter plate and incubated at 37 degrees Celsius with vigorous shaking. The growth curve was monitored by measuring OD450 using a Bioscreen C Microbiology reader (Thermo Electron Corporation) at intervals of 30 minutes for 14 hours (see Invitrogen protocol of the pBAD/gill A, B and C vectors catalogue nos. V450-01 for buffer and media composition). The percentage of growth inhibition was calculated as the end point OD measurement of each sample divided by the end point OD measurement obtained from cells containing the control vector and multiplied by 100. The formula is the following: [formula] where “blank OD” corresponds to the OD of an empty well.

Sequence: GRFKRFWKKIGRKFKKIGQMLKPIRILVP (Synthetic antimicrobial peptide) [SEQ ID NO: 9]
- Growth inhibition using 0.01% arabinose (%) (Table 4): 96%
- Growth inhibition using 0.1% arabinose (%) (Table 4): 100%

Sequence: GLLRRLWKKIGRKFKKYGQVIKHIRKLVP (Synthetic antimicrobial peptide) [SEQ ID NO: 48]
- Growth inhibition using 0.1% arabinose (%) (Table 5): 97%

Sequence: GLLRRIIGKKIGKKFKKCGQVIKAIRILVP (GLLRRLGKKIGKKFKKCGQVIKAIRILVP; Synthetic antimicrobial peptide) [SEQ ID NO: 54]
- Growth inhibition using 0.1% arabinose (%) (Table 5): 89%

Sequence: GLLKRLGRKIGKKLKKFGQKIKAIRKLVP (Synthetic antimicrobial peptide) [SEQ ID NO: 8]
- Growth inhibition using 0.01% arabinose (%) (Table 4): 97%
- Growth inhibition using 0.1% arabinose (%) (Table 4): 100%

Sequence: GLFRRIRRKIGKKFKKFGQVIKPLRKLVP (Synthetic antimicrobial peptide) [SEQ ID NO: 52]
- Growth inhibition using 0.1% arabinose (%) (Table 5): 95%

Sequence: GRIRRLRRKIRKKLKKYGQKIKAIRKIVP (GRLRRLRRKIRKKLKKYGQKIKAIRKLVP; Synthetic antimicrobial peptide) [SEQ ID NO: 27]
- Growth inhibition using 0.1% arabinose (%) (Table 5): 96%

Sequence: GLLRRFRKKIGEKFKKFGQKIKNIRILVP (Synthetic antimicrobial peptide) [SEQ ID NO: 55]
- Growth inhibition using 0.1% arabinose (%) (Table 5): 79%

Sequence: GLVRRFRRKIGKKLKKIGQIIKAIRKLVP (Synthetic antimicrobial peptide) [SEQ ID NO: 31]
- Growth inhibition using 0.1% arabinose (%) (Table 5): 96%

Sequence: GLFKRLRKKIGKKLKKFGQKIKPLRKLVP (Synthetic antimicrobial peptide) [SEQ ID NO: 18]
- Growth inhibition using 0.1% arabinose (%) (Table 5): 94%

Sequence: GLLRRLRRKIGGKLKKFGQKIKPLRKLVP (Synthetic antimicrobial peptide) [SEQ ID NO: 6]
- Growth inhibition using 0.01% arabinose (%) (Table 4): 92%
- Growth inhibition using 0.1% arabinose (%) (Table 4): 100%

Sequence: GLLRRFRKKIGGKLKKYGQIIKHLRILVP (Synthetic antimicrobial peptide) [SEQ ID NO: 5]
- Growth inhibition using 0.01% arabinose (%) (Table 4): 94%
- Growth inhibition using 0.1% arabinose (%) (Table 4): 100%

Sequence: GLFRRLRRKIGKKFKKFGQKIKPLRKLVP (Synthetic antimicrobial peptide) [SEQ ID NO: 46]
- Growth inhibition using 0.1% arabinose (%) (Table 5): 96%

Sequence: GLFRRLRGKIGKKLKKIGQKIKAIRILVP (Synthetic antimicrobial peptide) [SEQ ID NO: 33]
- Growth inhibition using 0.1% arabinose (%) (Table 5): 91%

Sequence: GLLRRLGKKIGKKFKKFGQVIKALRILVP (Synthetic antimicrobial peptide) [SEQ ID NO: 35]
- Growth inhibition using 0.1% arabinose (%) (Table 5): 95%

Sequence: GLFRRLRKKIGKKLKKIAR (Synthetic antimicrobial peptide) [SEQ ID NO: 64]
- Growth inhibition using 0.01% arabinose (%) (Table 6): 92%
- Growth inhibition using 0.1% arabinose (%) (Table 6): 99%

Sequence: GLLRRLGRKIGKKLKKIGQKIKAIRILVP (Synthetic antimicrobial peptide) [SEQ ID NO: 49]
- Growth inhibition using 0.1% arabinose (%) (Table 5): 96%

Sequence: GLFRRLRKKIGKKLKKIGQLIKAIRILVP (Synthetic antimicrobial peptide) [SEQ ID NO: 23]
- Growth inhibition using 0.1% arabinose (%) (Table 5): 97%

Sequence: GLLRRFGRKIGKKFKKFGPKIKILRKLVP (GLLRRFGRKIGKKFKKFGPKIKHLRKLVP; Synthetic antimicrobial peptide) [SEQ ID NO: 19]
- Growth inhibition using 0.1% arabinose (%) (Table 5): 91%

Sequence: GLLRRLRKKIGKKLKFFGQKIKHIRILVP (GLLRRLRKKIGKKLKKFGQKIKHIRILVP; Synthetic antimicrobial peptide) [SEQ ID NO: 7]
- Growth inhibition using 0.01% arabinose (%) (Table 4): 93%
- Growth inhibition using 0.1% arabinose (%) (Table 4): 100%

Sequence: GLFRRFGKKIGKKLKKIGQVIKALRILVP (Synthetic antimicrobial peptide) [SEQ ID NO: 39]
- Growth inhibition using 0.1% arabinose (%) (Table 5): 95%

Sequence: GLFRRLRKKIGKKFKKIAR (Synthetic antimicrobial peptide) [SEQ ID NO: 69]
- Growth inhibition using 0.01% arabinose (%) (Table 6): 86%
- Growth inhibition using 0.1% arabinose (%) (Table 6): 99%

Sequence: GLLRRFRNKIGKKLKKIGQKIKPIRKLVP (Synthetic antimicrobial peptide) [SEQ ID NO: 50]
- Growth inhibition using 0.1% arabinose (%) (Table 5): 92%

Sequence: GRFRRFRKKIGKKLKKIGLVIKHIRILVP (Synthetic antimicrobial peptide) [SEQ ID NO: 14]
- Growth inhibition using 0.01% arabinose (%) (Table 4): 94%
- Growth inhibition using 0.1% arabinose (%) (Table 4): 100%

Sequence: GLLRRLRKKIGKKLKKITR (Synthetic antimicrobial peptide) [SEQ ID NO: 63]
- Growth inhibition using 0.01% arabinose (%) (Table 6): 95%
- Growth inhibition using 0.1% arabinose (%) (Table 6): 99%

Sequence: GLLRRLRKKIEKKLKKYGPKIKALRKLVP (Synthetic antimicrobial peptide) [SEQ ID NO: 37]
- Growth inhibition using 0.1% arabinose (%) (Table 5): 94%

Sequence: GLLKRLRKKIGKKLKKIGQKIKPIRKLVP (Synthetic antimicrobial peptide) [SEQ ID NO: 25]
- Growth inhibition using 0.1% arabinose (%) (Table 5): 94%

Sequence: GLFRRFGKKIGKKIIKKIGQKIKPIHKLVP (GLFRRFGKKIGKKLKKIGQKIKPIHKLVP; Synthetic antimicrobial peptide) [SEQ ID NO: 43]
- Growth inhibition using 0.1% arabinose (%) (Table 5): 76%

Sequence: GLFRRFWKKIGRKLKKIGQKIKPLQILVP (Synthetic antimicrobial peptide) [SEQ ID NO: 47]
- Growth inhibition using 0.1% arabinose (%) (Table 5): 79%

Sequence: GLLRRFGRKIGKKFKKFGPKIKHLRKLVP (Synthetic antimicrobial peptide) [SEQ ID NO: 26]
- Growth inhibition using 0.1% arabinose (%) (Table 5): 92%

Sequence: GLLRRLRKKIGRKFKKIAR (Synthetic antimicrobial peptide) [SEQ ID NO: 68]
- Growth inhibition using 0.01% arabinose (%) (Table 6): 91%
- Growth inhibition using 0.1% arabinose (%) (Table 6): 100%

Sequence: GLLRRLRRKIGKKLKKFGQKIKHIRILVP (Synthetic antimicrobial peptide) [SEQ ID NO: 15]
- Growth inhibition using 0.01% arabinose (%) (Table 4): 96%
- Growth inhibition using 0.1% arabinose (%) (Table 4): 100%

Sequence: GLFRRLGRKIGKKLKKIGQVIKHIRILVP (Synthetic antimicrobial peptide) [SEQ ID NO: 36]
- Growth inhibition using 0.1% arabinose (%) (Table 5): 95%

Sequence: GRLRRFGKKIGKKIKKFGQLIKALRILVP (GRLRRFGKKIGKKLKKFGQLIKALRILVP; Synthetic antimicrobial peptide) [SEQ ID NO: 40]
- Growth inhibition using 0.1% arabinose (%) (Table 5): 95%

Sequence: GLLRRLRNKIRKKLKKFGQKIKAIRILVP (Synthetic antimicrobial peptide) [SEQ ID NO: 16]
- Growth inhibition using 0.01% arabinose (%) (Table 4): 96%
- Growth inhibition using 0.1% arabinose (%) (Table 4): 100%

Sequence: GLLKRLRKKIGKKLKKIGPKIKHIRKLVP (Synthetic antimicrobial peptide) [SEQ ID NO: 10]
- Growth inhibition using 0.01% arabinose (%) (Table 4): 93%
- Growth inhibition using 0.1% arabinose (%) (Table 4): 100%

Sequence: GRFRRFRKKIGKKFKKFGQMIKALRILVP (Synthetic antimicrobial peptide) [SEQ ID NO: 29]
- Growth inhibition using 0.1% arabinose (%) (Table 5): 95%

Sequence: GLLRRFGKKIGKKFKKYGQKIKNLRILVP (Synthetic antimicrobial peptide) [SEQ ID NO: 24]
- Growth inhibition using 0.1% arabinose (%) (Table 5): 92%
